The test system of series [1] is Trypanosoma brucei rhodesiense (T.b.r.). The experiment in a line: In vitro activity vs. T. b. rhodesiense. The format is cell-based.
For series [2], the system named is Plasmodium falciparum (P.f.). Put plainly: In vitro activity vs. P. falciparum. Format: cell-based.
The test system of series [3] is virulent STIP900 strain of T.b.r. Put plainly: Mouse model of T.b.r. infection. Format: in vivo.
[4] abbreviates: read-out: IC-50 values versus Trypanosoma brucei rhodesiense (T.b.r.).
Where [5] appears, read: read-out: IC-50 values versus Plasmodium falciparum (p.f.).

Structures can show the parent of a compound that is named as a salt. Where two headings read alike, the source gives them in different places.

`N=C(N)c1ccc(-c2ccc(-c3nc4ccc(C(=N)N)cc4[nH]3)cc2)cc1` [Compound 56]: the IC50 in series [1] (Table 2, read-out: T.b.r. IC50) was 7.7 nM; in series [1] (setting [4]), below 20 nM; in series [2] (Table 2, read-out: P.f. IC50) it was 0.5 nM; in series [2] (setting [5]), below 3 nM.
For the molecule `CC(=O)O.N=C(N)c1ccc2[nH]c(-c3ccc(-c4ccc(C(=N)N)c(F)c4)cc3)nc2c1` [Compound 32, 2-(4′-carbamimidoyl-3′-fluoro-biphenyl-4-yl)-1H-benzimidazole-5-carboxamidine acetate salt], the melting point is 210 to 212 °C (dec.). The IC50 in series [1] (Table 2, read-out: T.b.r. IC50) came out at 35 nM. Moreover, in series [2] (Table 2, read-out: P.f. IC50), the IC50 was 1.3 nM. Also, in series [2] (setting [5]), the IC50 was below 3 nM.
`CC(=O)O.Cc1cc(C(=N)N)ccc1-c1cccc(-c2nc3cc(C(=N)N)ccc3[nH]2)c1` [Compound 28, 2-(4′-carbamimidoyl-2′-methyl-biphenyl-3-yl)-1H-benzimidazole-5-carboxamidine acetate salt] showed a melting point of 201 to 203 °C. Also, the IC50 in series [1] (Table 1, read-out: T.b.r. IC50) was found to be 23 nM. The IC50 in series [2] (Table 1, read-out: P.f. IC50) came out at 55 nM.
As for `N=C(NO)c1ccc(-c2ccc(-c3nc4cc(C(=N)NO)ccc4[nH]3)cc2)c(OCc2ccccc2)c1` [Compound 47, 2-[2′-benzyloxy-4′-(N-hydroxycarbamimidoyl)-biphenyl-4-yl]-N-hydroxy-1H-benzimidazole-5-carboxamidine], the melting point is 250 to 253 °C (dec.).
As to `CC(=O)O.N=C(N)c1ccc(-c2cccc(-c3nc4cc(C(=N)N)ccc4[nH]3)c2)nc1` [Compound 40, 2-[3-(5-Carbamimidoyl-pyridin-2-yl)-phenyl]-1H-benzimidazole-5-carboxamidine acetate salt], the melting point is 198 to 200 °C (dec.). For the same molecule, in series [1] (Table 1, read-out: T.b.r. IC50), the IC50 came to 15 nM. In addition, in series [1] (setting [4]), the IC50 was below 20 nM. In addition, in series [3], the “cure of the virulent STIP900 strain of T.b.r. in a mouse model” value was “cure”. For the same molecule, the IC50 in series [2] (Table 1, read-out: P.f. IC50) stood at 96 nM.
As to `N=C(NO)c1cccc(-c2ccc(O)c(-c3nc4cc(C(=N)NO)ccc4[nH]3)c2)c1` [Compound 7, N-hydroxy-2-[4-hydroxy-3′-(N-hydroxycarbamimidoyl)-biphenyl-3-yl]-1H-benzimidazole-5-carboxamidine], the melting point lay within 352 to 355 °C.
The same measure, in the same setting: the figure for `Cc1cc(C(=N)NO)ccc1-c1cccc(-c2nc3cc(C(=N)NO)ccc3[nH]2)c1` [Compound 27, N-hydroxy-2-[4′-(N-hydroxycarbamimidoyl)-2′-methyl-biphenyl-3-yl]-1H-benzimidazole-5-carboxamidine] is 295 to 297 °C (dec.).
Molecule `COc1ccc(-c2ccc(C(=N)NO)cc2)cc1-c1nc2cc(C(=N)NO)ccc2[nH]1` [Compound 19, N-hydroxy-2-[4′-(N-hydroxycarbamimidoyl)-4-methoxy-biphenyl-3-yl]-1H-benzimidazole-5-carboxamidine] displayed a melting point above 340 °C.
On to `N=C(N)c1ccc(-c2ccc(O)c(-c3nc4cc(C(=N)N)ccc4[nH]3)c2)cc1` [Compound 4, 2-(4′-carbamimidoyl-4-hydroxy-biphenyl-3-yl)-1H-benzimidazole-5-carboxamidine acetate salt], for which the IC50 in series [1] (Table 1, read-out: T.b.r. IC50) is 27 nM; in series [2] (Table 1, read-out: P.f. IC50) it was 2.1 nM; in series [2] (setting [5]) it was below 3 nM.
In turn, `CC(=O)O.Cc1cc(C(=N)N)ccc1-c1ccc(-c2nc3cc(C(=N)N)ccc3[nH]2)cc1` [Compound 52, 2-(4′-carbamimidoyl-2′-methylbiphenyl-4-yl)-1H-benzimidazole-5-carboxamidine acetate salt] gave a melting point of 193 to 195 °C. The IC50 in series [1] (Table 2, read-out: T.b.r. IC50) was determined as 6 nM. The IC50 in series [1] (setting [4]) is below 20 nM.
The molecule `COc1cc(-c2ccc(C(=N)NO)cc2)cc(-c2nc3cc(C(=N)NO)ccc3[nH]2)c1O` [Compound 11, N-hydroxy-2-[4-hydroxy-4′-(N-hydroxycarbamimidoyl)-5-methoxy-biphenyl-3-yl]-1H-benzimidazole-5-carboxamidine] returned a melting point of 319 to 321 °C.
With `N=C(N)c1ccc(-c2cccc(-c3nc4cc(C(=N)N)ccc4[nH]3)c2)cc1` [Compound 24, 2-(4′-carbamimidoyl-biphenyl-3-yl)-1H-benzimidazole-5-carboxamidine acetate salt], the IC50 in series [1] (Table 1, read-out: T.b.r. IC50) was 4.4 nM; in series [1] (setting [4]), below 20 nM; in series [2] (Table 1, read-out: P.f. IC50) it was 27.5 nM.
The molecule `CC(=O)O.N=C(N)c1ccc(-c2ccc(-c3nc4cc(C(=N)N)ccc4[nH]3)cc2)nc1` [Compound 44, 2-[4-(5-carbamimidoyl-pyridin-2-yl)-phenyl]-1H-benzimidazole-5-carboxamidine acetate salt] yielded a melting point of 240 to 241 °C. For the same molecule, the IC50 in series [1] (Table 2, read-out: T.b.r. IC50) is 41 nM. In addition, the IC50 in series [2] (Table 2, read-out: P.f. IC50) was 7 nM.
Take `N=C(NO)c1ccc(-c2cccc(-c3nc4cc(C(=N)NO)ccc4[nH]3)c2O)cc1` [Compound 15, N-hydroxy-2-[2-hydroxy-4′-(N-hydroxycarbamimidoyl)-biphenyl-3-yl]-1H-benzimidazole-5-carboxamidine]: the melting point was 322 to 325 °C (dec.).
For `CC(=O)O.N=C(N)c1ccc(-c2cccc(-c3nc4cc(C(=N)N)ccc4[nH]3)c2O)cc1` [Compound 16, 2-(4′-carbamimidoyl-2-hydroxy-biphenyl-3-yl)-1H-benzimidazole-5-carboxamidine acetate salt], the melting point is 228 to 229.5 °C (dec.). In addition, the IC50 in series [1] (Table 1, read-out: T.b.r. IC50) turned out to be 17 nM. Also, in series [1] (setting [4]), the IC50 was below 20 nM. Also, the “cure of the virulent STIP900 strain of T.b.r. in a mouse model” value in series [3] is on record as “cure”. Besides, in series [2] (Table 1, read-out: P.f. IC50), the IC50 stood at 131 nM.
Regarding `CC(=O)O.COc1ccc(-c2ccc(C(=N)N)cc2)cc1-c1nc2cc(C(=N)N)ccc2[nH]1` [Compound 20, 2-(4′-carbamimidoyl-4-methoxy-biphenyl-3-yl)-1H-benzimidazole-5-carboxamidine acetate salt], the melting point is 220 to 221 °C. Besides, in series [1] (Table 1, read-out: T.b.r. IC50), the IC50 came to 53 nM. Also, the IC50 in series [2] (Table 1, read-out: P.f. IC50) was 40 nM.
On to `N=C(NO)c1ccc(-c2cccc(-c3nc4cc(C(=N)NO)ccc4[nH]3)c2)nc1` [Compound 39, N-hydroxy-2-{3-[5-(N-hydroxycarbamimidoyl)-pyridin-2-yl]-phenyl}-1H-benzimidazole-5-carboxamidine], for which the melting point was 295 to 297 °C (dec.).
For `N=C(NO)c1ccc(-c2ccc(-c3nc4cc(C(=N)NO)ccc4[nH]3)cc2)nc1` [Compound 43, N-hydroxy-2-{4-[5-(N-hydroxycarbamimidoyl)-pyridin-2-yl]-phenyl}-1H-benzimidazole-5-carboxamidine], the melting point is 305 to 308 °C (dec.).
Turning to `CC(=O)O.COc1ccc(-c2ccc(C(=N)N)cn2)cc1-c1nc2cc(C(=N)N)ccc2[nH]1` [Compound 36, 2-[5-(5-carbamimidoyl-pyridin-2-yl)-2-methoxyphenyl]-1H-benzimidazole-5-carboxamidine acetate salt], the melting point is 231 to 232 °C (dec.). Moreover, the IC50 in series [1] (Table 1, read-out: T.b.r. IC50) stood at 14 nM. Further, the IC50 in series [1] (setting [4]) is below 20 nM. Also, the IC50 in series [2] (Table 1, read-out: P.f. IC50) was found to be 364 nM.
Molecule `N=C(NO)c1ccc(-c2cccc(-c3nc4cc(C(=N)NO)ccc4[nH]3)c2)cc1` [Compound 23, N-hydroxy-2-[4′-(N-hydroxycarbamimidoyl)-biphenyl-3-yl]-1H-benzimidazole-5-carboxamidine] gave a melting point of 317 to 319 °C.
Molecule `CC(=O)O.N=C(N)c1ccc(-c2ccc(-c3nc4cc(C(=N)N)ccc4[nH]3)cc2)c(O)c1` [Compound 48, 2-(4′-carbamimidoyl-2′-hydroxy-biphenyl-4-yl)-1H-benzimidazole-5-carboxamidine acetate salt] gave a melting point of 220 to 222 °C. In addition, the IC50 in series [1] (Table 2, read-out: T.b.r. IC50) was found to be 27 nM. The IC50 in series [2] (Table 2, read-out: P.f. IC50) was 19.1 nM.
Regarding `CC(=O)O.COc1cc(-c2ccc(C(=N)N)cc2)cc(-c2nc3cc(C(=N)N)ccc3[nH]2)c1O` [Compound 12, 2-(4′-carbamimidoyl-4-hydroxy-5-methoxy-biphenyl-3-yl)-1H-benzimidazole-5-carboxamidine acetate salt], the melting point is 230 to 231 °C (dec.). Besides, the IC50 in series [1] (Table 1, read-out: T.b.r. IC50) was 31 nM. The IC50 in series [2] (Table 1, read-out: P.f. IC50) is 131 nM.
Turning to `CC(=O)O.N=C(N)c1cccc(-c2ccc(O)c(-c3nc4cc(C(=N)N)ccc4[nH]3)c2)c1` [Compound 8, 2-(3′-carbamimidoyl-4-hydroxy-biphenyl-3-yl)-1H-benzimidazole-5-carboxamidine acetate salt], the melting point is 208 to 209 °C (dec.). The IC50 in series [1] (Table 1, read-out: T.b.r. IC50) was determined as 213 nM. Besides, the IC50 in series [2] (Table 1, read-out: P.f. IC50) stood at 34 nM.
`Cc1cc(C(=N)NO)ccc1-c1ccc(-c2nc3cc(C(=N)NO)ccc3[nH]2)cc1` [Compound 51, N-hydroxy-2-[4′-(N-hydroxycarbamimidoyl)-2′-methyl-biphenyl-4-yl]-1H-benzimidazole-5-carboxamidine] gave a melting point of 300 to 302 °C.
On the same count and under the same terms, under `N=C(NO)c1ccc(-c2ccc(-c3nc4cc(C(=N)NO)ccc4[nH]3)c(F)c2)cc1` [Compound 31, 2-[3-fluoro-4′-(N-hydroxycarbamimidoyl)-biphenyl-4-yl]-N-hydroxy-1H-benzimidazole-5-carboxamidine] stands 281 to 283 °C (dec.).

In general, melting point refers to the temperature, or range, at which the solid turns liquid.

Values taken from patent US20050148646A1, “Dicationic triaryl analogs as anti-protozoan agents” (priority 2003, published 2005).
